Laboratory results published in PMC3530165 (Chemistry & biology, 2012).
Where two headings read alike, the source gives them in different places.

Target: C619A GlcB (malate synthase) (Mycobacterium tuberculosis, UniProt P9WK17, C619A)

Row | Compound | IC50 | IC50 (read-out: IC50 against GlcB)
1 | O=C(O)C(=O)CC(=O)c1ccccc1F [Compound 2] | 0.24 µM | 
2 | O=C(O)C(=O)CC(=O)c1ccccc1Cl [Compound 3] | 0.5 µM | 
3 | O=C(O)C(=O)CC(=O)c1cccc(Cl)c1 [Compound 6] | 0.17 µM | 
4 | Cc1ccc(C(=O)CC(=O)C(=O)O)cc1 [Compound 8] | 6 µM | 5.7 µM
5 | O=C(O)C(=O)CC(=O)c1ccc(Br)cc1 [Compound 9] | 5.7 µM | 6 µM
